Assay results: PubChem BioAssay (NCI)
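Method: 48-hour compound exposure of cells in 96-well plates, five concentrations, linear interpolation of endpoints. TGI denotes the concentration required for complete inhibition of growth.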

Columns and labels:
Test in all cases: inhibition of tumour cell growth, NCI panel, 48 h
NCI-H23 lung = test system: NCI-H23 lung
CAKI-1 renal = test system: CAKI-1 renal
RPMI-8226 leukemia = test system: RPMI-8226 leukemia
SW-620 colon = test system: SW-620 colon
SK-MEL-28 melanoma = test system: SK-MEL-28 melanoma
UO-31 renal = test system: UO-31 renal
RXF 393 renal = test system: RXF 393 renal
SK-MEL-5 melanoma = test system: SK-MEL-5 melanoma
SR leukemia = test system: SR leukemia
COLO 205 colon = test system: COLO 205 colon
TK-10 renal = test system: TK-10 renal
NCI-H522 lung = test system: NCI-H522 lung
HCC-2998 colon = test system: HCC-2998 colon
IGROV1 ovarian = test system: IGROV1 ovarian
SF-539 CNS = test system: SF-539 CNS
NCI/ADR-RES ovarian = test system: NCI/ADR-RES ovarian
PC-3 prostate = test system: PC-3 prostate
SNB-19 CNS = test system: SNB-19 CNS
NCI-H226 lung = test system: NCI-H226 lung
HL-60(TB) leukemia = test system: HL-60(TB) leukemia
A549 NSCLC = test system: A549 NSCLC
MALME-3M melanoma = test system: MALME-3M melanoma
DU-145 prostate = test system: DU-145 prostate
MOLT-4 leukemia = test system: MOLT-4 leukemia
HCT-116 colon = test system: HCT-116 colon
SNB-75 CNS = test system: SNB-75 CNS
OVCAR-3 ovarian = test system: OVCAR-3 ovarian
786-0 renal = test system: 786-0 renal
OVCAR-8 ovarian = test system: OVCAR-8 ovarian
SF-295 CNS = test system: SF-295 CNS
SN12C renal = test system: SN12C renal
M14 melanoma = test system: M14 melanoma
NCI-H460 lung = test system: NCI-H460 lung
ACHN renal = test system: ACHN renal
HOP-62 NSCLC = test system: HOP-62 NSCLC
U251 CNS = test system: U251 CNS
MDA-MB-231 breast = test system: MDA-MB-231 breast
MDA-N = test system: MDA-N
HCT-15 colon = test system: HCT-15 colon
UACC-257 melanoma = test system: UACC-257 melanoma
CCRF-CEM leukemia = test system: CCRF-CEM leukemia
MDA-MB-435 = test system: MDA-MB-435
HT29 colon = test system: HT29 colon
KM12 colon = test system: KM12 colon
HS 578T breast = test system: HS 578T breast
MCF7 breast = test system: MCF7 breast
K-562 leukemia = test system: K-562 leukemia
SF-268 CNS = test system: SF-268 CNS
LOX IMVI melanoma = test system: LOX IMVI melanoma
EKVX NSCLC = test system: EKVX NSCLC

Measured: TGI

CCOP(=O)(OCC)C(c1ccccc1)N(C(=O)NC(F)(F)F)c1cccc(F)c1 (stereo not given)
> 100 µM: all assays above
